According to patent US20190209645A1, “POTENTIATION OF ANTIBIOTIC ACTIVITY BY A NOVEL CATIONIC PEPTIDE, SPR741” (priority 2016, published 2019):
Bridge positions count the residues as written; N and C are the ends. Square brackets hold non-standard residues; d marks the D form. Peptide text beside a SMILES is read from it. Dab = NCC[C@H](N)C(=O)O

Key:
[1] = system: Klebsiella pneumoniae (Kp) MDR and clinical isolates; assay: Susceptibility testing (MIC, CLSI M7-A10) of antibiotics with SPR741; assay type: cell-based; details: for order of potentiation of the antibiotics by SPR741: 25 Kp isolates, Mueller-Hinton broth-II with 0, 2 or 8 μg/mL SPR741
Experimental: (§1) Assays were performed against 25 Escherichia coli (Ec), 25 Klebsiella pneumoniae (Kp), and 17 Acinetobacter baumannii (Ab) MDR and clinical isolates, in Mueller-Hinton broth-II (cation adjusted) containing 0, 2 or 8 μg/mL SPR741. The minimum inhibitory concentration (MIC) was defined as the lowest concentration of antibiotic required to inhibit visible bacterial growth. MIC values were determined for each antibiotic/SPR741 combination and maximum reductions in MIC of the antibiotic in the combination were determined.

[2] = system: Escherichia coli (Ec) MDR and clinical isolates; assay: as above; assay type: cell-based; details: for order of potentiation of the antibiotics by SPR741: 25 Ec isolates, Mueller-Hinton broth-II with 0, 2 or 8 μg/mL SPR741
Experimental: as §1

[3] = system: Acinetobacter baumannii (Ab) MDR and clinical isolates; assay: as above; assay type: cell-based; details: for order of potentiation of the antibiotics by SPR741: 17 Ab isolates, Mueller-Hinton broth-II with 0, 2 or 8 μg/mL SPR741
Experimental: as §1

[4] = Minimum bactericidal concentration of combinations in the presence of 5% surfactant (Survanta); assay type: cell-based; details: in combination with SPR741; with or without 5% Survanta
Experimental: (§2) Efficacy was assessed in checkerboard assays. The minimum inhibitory concentration (MIC) of SPR741, antibiotics, and combinations thereof was defined as the lowest concentration that inhibited growth of Ec ATCC 25922, Ab NCTC 12156 and Kp ATCC 43816. Ec BW25113, ΔtolC and ΔacrA were used to assess the contribution of the multi drug efflux pump AcrAB-TolC to susceptibility to the combinations. Interactions were assessed by calculating fractional inhibitory concentration indices (FICI) for each combination in which the MIC differed from compounds in isolation. Interactions were defined as: FICI>4, antagonism; 0.5-4, no interaction; <0.5, synergy. The minimum bactericidal concentration of combinations in the presence of 5% surfactant (Survanta) was also determined.

Gram negative bacteria = details: previously shown; cited from earlier work
[5] = system: Ec BW25113, ΔtolC and ΔacrA; assay: Contribution of efflux pump AcrAB-TolC to susceptibility to the combinations; assay type: cell-based, Escherichia coli
Experimental: as §2

[6] = Kp isolates, in combination with SPR741

Row | SMILES | order of potentiation of the antibiotics by SPR741 [1] | order of potentiation of the antibiotics by SPR741 [2] | order of potentiation of the antibiotics by SPR741 [3] | further results
1 | CC[C@H]1OC(=O)[C@H](C)[C@@H](O[C@H]2C[C@@](C)(OC)[C@@H](O)[C@H](C)O2)[C@H](C)[C@@H](O[C@@H]2O[C@H](C)C[C@H](N(C)C)[C@H]2O)[C@](C)(O)C[C@@H](C)CN(C)[C@H](C)[C@@H](O)[C@]1(C)O [AZ, azithromycin] | RET>RIF=AZ=CLR>MUP>MEM=FA>AZT | RIF>MUP=FA>AZ=RET>AZT>MEM=CLR | FA>RIF>CLR>RET>MEM>AZ>AZT>MUP | 
2 | C[C@H]1[C@H](NC(=O)/C(=N\OC(C)(C)C(=O)O)c2csc(N)n2)C(=O)N1S(=O)(=O)O [AZT, aztreonam] |  | RIF>MUP=FA>AZ=RET>AZT>MEM=CLR | FA>RIF>CLR>RET>MEM>AZ>AZT>MUP | 
3 | CC[C@H]1OC(=O)[C@H](C)[C@@H](O[C@H]2C[C@@](C)(OC)[C@@H](O)[C@H](C)O2)[C@H](C)[C@@H](O[C@@H]2O[C@H](C)C[C@H](N(C)C)[C@H]2O)[C@](C)(OC)C[C@@H](C)C(=O)[C@H](C)[C@@H](O)[C@]1(C)O [CLR, clarithromycin] | RET>RIF=AZ=CLR>MUP>MEM=FA>AZT | RIF>MUP=FA>AZ=RET>AZT>MEM=CLR | FA>RIF>CLR>RET>MEM>AZ>AZT>MUP | bactericidal activity (minimum bactericidal concentration) of the combination [4]: bactericidal at concentrations similar to the MIC irrespective of the presence of Survanta
4 | CC(=O)O[C@H]1C[C@@]2(C)[C@@H](C[C@@H](O)[C@H]3[C@@]4(C)CC[C@@H](O)[C@@H](C)[C@@H]4CC[C@@]32C)/C1=C(\CCC=C(C)C)C(=O)O [FA, fusidic acid] | RET>RIF=AZ=CLR>MUP>MEM=FA>AZT | RIF>MUP=FA>AZ=RET>AZT>MEM=CLR | FA>RIF>CLR>RET>MEM>AZ>AZT>MUP | 
5 | C[C@@H](O)[C@H]1C(=O)N2C(C(=O)O)=C(S[C@@H]3CN[C@H](C(=O)N(C)C)C3)[C@H](C)[C@H]12 [MEM, meropenem] | RET>RIF=AZ=CLR>MUP>MEM=FA>AZT | RIF>MUP=FA>AZ=RET>AZT>MEM=CLR | FA>RIF>CLR>RET>MEM>AZ>AZT>MUP | 
6 | C/C(=C\C(=O)OCCCCCCCCC(=O)O)C[C@@H]1OC[C@H](C[C@@H]2O[C@H]2[C@@H](C)[C@H](C)O)[C@@H](O)[C@H]1O [MUP, mupirocin] | RET>RIF=AZ=CLR>MUP>MEM=FA>AZT | RIF>MUP=FA>AZ=RET>AZT>MEM=CLR | FA>RIF>CLR>RET>MEM>AZ>AZT>MUP | 
7 | C=C[C@]1(C)C[C@@H](OC(=O)CS[C@@H]2C[C@H]3CC[C@@H](C2)N3C)[C@]2(C)[C@H](C)CC[C@]3(CCC(=O)[C@H]32)[C@@H](C)[C@@H]1O [RET, retapamulin] | RET>RIF=AZ=CLR>MUP>MEM=FA>AZT | RIF>MUP=FA>AZ=RET>AZT>MEM=CLR | FA>RIF>CLR>RET>MEM>AZ>AZT>MUP | MIC of antibiotic in the combination [1, 6]: 4 µg/mL; MIC reduction [1, 6]: 32 fold; MIC of antibiotic alone ([1]; Kp isolates, without SPR741): 128 µg/mL
8 | CO[C@H]1/C=C/O[C@@]2(C)Oc3c(C)c(O)c4c(O)c(c(/C=N/N5CCN(C)CC5)c(O)c4c3C2=O)NC(=O)/C(C)=C\C=C\[C@H](C)[C@H](O)[C@@H](C)[C@@H](O)[C@@H](C)[C@H](OC(C)=O)[C@@H]1C [RIF, rifampicin] |  |  |  | maximum MIC reduction ([2]; Ec isolates, in combination with SPR741): > 2000 fold; MIC of antibiotic alone ([2]; Ec isolates, without SPR741): > 128 µg/mL
9 | CC(=O)N[C@H](C(=O)N[C@H](CO)C(=O)N[C@H]1CCNC(=O)[C@H]([C@@H](C)O)NC(=O)[C@H](CCN)NC(=O)[C@H](CCN)NC(=O)[C@H](CC(C)C)NC(=O)[C@@H](Cc2ccccc2)NC(=O)[C@H](CCN)NC1=O)[C@@H](C)O [SPR741, Acetyl-Thr-dSer-cy[Dab-Dab-dPhe-Leu-Dab-Dab-Thr]] (Ac-T[dS][Dab][Dab][dF]L[Dab][Dab]T; lactam 3-C) |  |  |  | sensitisation of bacteria to antibiotics (Gram negative bacteria): increase the sensitivity of certain bacteria to Mupirocin, Azithromycin, Fusidic Acid, and Vancomycin; potentiation of antibiotics that are AcrAB-TolC substrates [5]: able to potentiate antibiotics that are substrates of AcrAB-TolC; effect of SPR741 on MIC of antibiotics ([1]; MDR isolates of Kp): effectively reduced the MIC of currently utilized antibiotics; effect of SPR741 on MIC of antibiotics ([2]; MDR isolates of Ec): effectively reduced the MIC of currently utilized antibiotics; effect of SPR741 on MIC of antibiotics ([3]; MDR isolates of Ab): effectively reduced the MIC of currently utilized antibiotics
